In patent US11841361B2, “Microfluidic proximal tubule kidney-on-chip” (EMULATE, INC., priority 2019, dated 2023):

What was measured:
[1] = Material absorption into Kidney-Chip and perfusion manifold materials; assay type: physicochemical; details: REGM serum-free medium; 1-72 hr; glass control
Text: In some embodiments, Material Absorption is one exemplary readout. When testing compounds added to a PT Kidney Chip, a determination of material absorption is made for that compound. The following is a exemplary method for determining material adsorption of a compound.
Study Conditions. Study approach: Each experiment includes a number of controls and test conditions. These allow us to tease out: Adsorption to the vial/well-plate. Absorption vs. adsorption to the tested material.
• 1. Dissolve the small molecule in an aqueous phase (medium) and incubate it with the tested material. • 2. Measure the concentration of small molecule remaining in the aqueous phase (using mass spec, plate reader). • 3. Curve-fit the measured data to quantify the absorption and diffusion parameters.

[2] = system: proximal tubular epithelium; experiment: Nephrotoxicity testing in Proximal Tubule Kidney-Chip; assay type: cell-based, human
[3] = system: Proximal Tubule Kidney-Chip; experiment: Efflux ratio / permeability of probe substrates in Proximal Tubule Kidney-Chip
Experimental: (§1) Additional transporter Tier 1 test substrates/substances include but are not limited to: 1. […] TEA; 4. PAH; 5. Estrone-3-sulfate (E3S); 6. Glycylsarcosine. In some embodiments, microfluidic devices are treated with a substance followed by a 30 minute flushing cycle. In some embodiments, microfluidic devices under go 100 ul/hr of flow during transported function measurements.
(§2) Permeability from the vascular (V) to luminal (L) direction (Papp(V−L)) and permeability from the luminal to vascular direction (Papp(L−V)) were determined along with calculating the efflux ratio (Papp(V−L)/PapP(L−V)). […] However, the values were included in the calculations to calculate the efflux ratio.

[4] = in vitro; details: human
Experimental: as §1, §2

[5] = Prediction of clearance versus clinical values; details: proximal tubule Kidney chip
[6] = system: P-gp (digoxin); MATE1/MATE2-K (metformin); OAT1 (PAH); experiment: in vitro
[7] = Creatinine and PAH secretion/transport in PT Kidney-Chip; assay type: in vitro ADME, human; details: human, Proximal Tubule Kidney-Chip; read-out: recovery of compound in the chip
Experimental: (§3) To measure creatinine secretion in the Proximal Tubule Kidney-Chip, the vascular compartment is perfused with medium containing 1 mg/dL of human creatinine, while the secretion of creatinine in the top channel is measured from chip effluent. Exemplary assay flow rate (Proximal Tubule Kidney-Chip) during this assays is 60 μL/hour. In some embodiments, samples of effluent are collected in outlet reservoirs of the module. In preferred embodiments, there is no dilution of effluent when using an exemplary commercial kit, e.g. Invitrogen™ Creatine Urinary Detection Kit (Thermo Fisher EIACUN as described at thermofisher.com, downloaded Jun. 20, 2019).
(§4) In some embodiments, creatinine transport is determined in relation to chip configuration and low vs. high flow. Creatinine Secretion: Creatinine Loss (BI-BO); Creatinine filtration (TO/BO); Apical Creatinine (TO).
(§5) After activation, S1 (tall channel) chips and high shear chips are coated with Emulate ECM (i.e. Col IV+ Matrigel) on the side of the membrane (typically the top channel) intended for seeding with PT Kidney Cells. For monocultures, proximal tubular cells are seeded into the channel with the ECM coated membrane. For co-culturing PT Kidney Cells (system), glomerular microvascular endothelial cells are seeded on bottom channel and incubated for overnight. The following day, proximal tubular cells are seeded into the top channel (where the membrane is coated with ECM) and cultured for 2 days under static conditions, i.e. no fluid flow. Chips will be connected to a culture module at day 3 along with starting flow at 150 ul/h for both channels. Media should be replenished daily. At day 7, PAH and Creatinine will be dosed Apically under a 150 ul/h flow rate then A to B transport will be measured. Initial collection (after 2 hours) will be discard and during the following 22 hours effluent fluid (media) will be collected at desired times for measurements. At day 8, PAH and Creatinine will then be dosed Basally at 150 ul/h flow rate and B to A transport will be measured. Initial collection during 2 hours will be discarded and over the following 22 hours, the media will be collected for measurement. At day 9, the chip will be return to culture mode and cultured for additional […]. At day 14 PAH and Creatinine will be dosed Apically at 150 ul/h flow rate and A to B transport will be measured. Initial collection (2 hours) will be discard and during the following 22 hours the media will be collected for measurement. At day 15, PAH and Creatinine will be dosed Basally at 150 ul/h flow rate and B to A transport will be measured. Initial collection during 2 hours will be discarded and the following 22 hours, the media will be collected for measurement.

[8] = system: Proximal Tubule Kidney-Chip; experiment: as above; assay type: in vitro ADME, human; details: for mass balance: compound loss (inlet/outlet) in chip system / active transport (B-A versus A-B transport): S1 and HS chips; for active transport (B-A versus A-B transport): Day 8 and Day 15
Experimental: as §3, §4, §5

[9] = system: Transwell kidney cell cultures; experiment: Efflux ratio of probe substrates in Transwell cultures; details: no inhibitor
[10] = system: PT Kidney-Chip; experiment: Barrier function: inulin leakage in PT Kidney-Chip; assay type: in vitro ADME, human; details: inulin added to apical channel
[11] = system: OCT2/MATE1/MATE2-K; experiment: in vitro; details: human, Kidney-Chip (Proximal Tubule), probe Meformin (so in the source); metformin)
Text: (§6) Substrates for transporters are termed “victim”.

[12] = system: OCT1/MATE1/MATE2-K; experiment: in vitro; details: human, Kidney-Chip (Proximal Tubule), probe TEA
Text: as §6

In the case of `C[C@]12CC[C@@H]3c4ccc(OS(=O)(=O)O)cc4CC[C@H]3[C@@H]1CCC2=O` [Estrone-3-sulfate], the “absorption into system materials (chip material, perfusion manifold material)” value [1] is reported as “Minimal absorption”.

For Gentamicin, the “LDH in medium effluent” value ([2]; 10 mM, 48 hours) was “significant increase”, the “N-acetyl-beta-(D)-glucosaminidase activity (NAG) in medium effluent” value ([2]; 10 mM, 48 hours) was “significant increases” and the TUNEL assay ([2]; 10 mM, 48 hours) was “significant DNA damage”. For the same molecule, the “active caspase-3 in cells lysates” value ([2]; 10 mM, 48 hours) was “increase”, the “microscopic analysis of the proximal tubular epithelium” value ([2]; 10 mM, 48 hours) was “structural damage” and the “reactive oxygen species (ROS)” value ([2]; 10 mM, 48 hours) was “significant increases”. For the same molecule, the Morphology ([2]; dosing at Day 7 for 24 h, Gentamicin 10 mM, Cisplatin 100 μM) was “Damaged”.

With `CN(C)C(=N)N=C(N)N` [Metformin] the “efflux from the vascular channel to the luminal channel” value ([3]; day 8, S1 chip, 30 μL/hr, time-dependent) was “significant efflux”.

In the case of `Nc1ccc(C(=O)NCC(=O)O)cc1` [PAH, p-aminohippuric acid], the efflux ratio ([4]; Kidney-Chip Efflux Ratio) is reported as 4.84, the efflux ratio ([4]; efflux ratio) is reported as 2.4 to 2.7 and the “predicted clearance value as % of clinical value” [5] is reported as 72%. The efflux ratio [6] was 1.37, the recovery [7] was roughly 100% and the “mass balance: compound loss (inlet/outlet) in chip system” value [8] was “No significant PAH loss”. For the same molecule, the “active transport (B-A versus A-B transport)” value [8] was “significant active transport”, the “PAH loss (BI-BO)” value ([8]; bottom channel) was 20 to 40 µg/mL and the “PHA transport (TO/BO)” value ([8]; low flow) was “about 20%”.

In the case of `CCCCC(=O)N(Cc1ccc(-c2ccccc2-c2nnn[nH]2)cc1)[C@H](C(=O)O)C(C)C` [Valsartan], the “absorption into system materials (chip material, perfusion manifold material)” value [1] is reported as “Minimal absorption”.

In the case of `CC[C@@]1(O)C(=O)OCc2c1cc1n(c2=O)Cc2cc3c(CN(C)C)c(O)ccc3nc2-1` [Topotecan], the “absorption into system materials (chip material, perfusion manifold material)” value [1] is reported as “Minimal absorption”.

In the case of `CC[N+](CC)(CC)CC` [TEA, Tetraethylammonium], the “Transwell Efflux Ratio” value [9] is reported as 1.11+/−0.06, the “Kidney-Chip Efflux Ratio” value ([3]; no inhibitor) is reported as 6.95+/−0.60 and the efflux ratio ([3]; transport studies comparing different flow rates, conditions tested) is reported as greater than 2.

With `CN1CC(=O)NC1=N` [Creatinine, 2-amino-1-methyl-5H-imadazol-4-one] the recovery [7] was roughly 100%, the “mass balance: compound loss (inlet/outlet) in chip system” value [8] was “No significant creatinine loss” and the “active transport (B-A versus A-B transport)” value [8] was “significant active transport”. For the same molecule, the “Creatinine loss (BI-BO)” value ([8]; bottom channel) was 2.5 to 4 mM and the “creatinine filtration (TO/BO)” value ([8]; low flow) was “About 50%”.

With `CCCN(CCC)S(=O)(=O)c1ccc(C(=O)O)cc1` [Probenecid] the “reduction of creatinine secretion” value ([8]; S1 chip, inhibitor incubated 3 hours, trend, statistically not significant) was 10%.

In the case of `Nc1ncnc2c1ncn2CCOCP(=O)(O)O` [Adefovir], the efflux ratio ([4]; Kidney-Chip Efflux Ratio) is reported as 2.01 and the “predicted clearance value as % of clinical value” [5] is reported as 85%.

In the case of `C[C@H]1O[C@@H](O[C@H]2[C@@H](O)C[C@H](O[C@H]3[C@@H](O)C[C@H](O[C@H]4CC[C@@]5(C)[C@H](CC[C@@H]6[C@@H]5C[C@@H](O)[C@]5(C)[C@@H](C7=CC(=O)OC7)CC[C@]65O)C4)O[C@@H]3C)O[C@@H]2C)C[C@H](O)[C@@H]1O` [Digoxin], the “absorption into system materials (chip material, perfusion manifold material)” value [1] is reported as “Minimal absorption”.

With inulin the “Inulin leakage into the basal channel” value [10] was “no significant inulin leakage”.

In the case of `CN/C(=N/CCSCc1nc[nH]c1C)NC#N` [Cimetidine], the IC50 [11] is reported as 4.41 µM, the IC50 [12] is reported as 3.16 µM and the “reduction of PAH secretion” value ([8]; S1 chip, trend, statistically not significant) is reported as 10%.
